Source: publication PMC11931565, “Exploring medium and long arm extensions of 1,2,4-triazole derivatives as Candida albicans 14α-demethylase (CYP51) inhibitors” (RSC Medicinal Chemistry, 2025)
In brackets after ≈: the same amount, converted by molar mass.

Columns and labels:
[1] = tested on: S. cerevisiae Y2411 parent (control levels of wild-type ScCYP51); experiment: MIC, recombinant S. cerevisiae strain Y2411 parent; type: cell-based; settings: Saccharomyces cerevisiae; SD medium pH 6.8, 30 °C; 80% inhibition of growth; read-out: MIC Y2411 parent
Procedure: (§1) The most promising thiazole derivative 7b, and the extended amide derivatives 13a and 13b were evaluated against a panel of recombinant S. cerevisiae strains[24,31,32] expressing control levels of wild-type CYP51 (ScCYP51), overexpressed wild-type ScCYP51, overexpressed azole-resistant ScCYP51 Y140F/H mutations (S. cerevisiae Y140 equivalent to C. albicans Y132), overexpressed C. albicans efflux pumps MDR1a or CDR1B and overexpressed H. sapiens wild-type CYP51 (HsCYP51) (Table 3) at 24 and 48 h with each assay performed in triplicate.
(§2) Minimum inhibitory concentration (MIC) were determined according to recommendations outlined in the Clinical and Laboratory Standards Institute (CLSI) document M27-Ed4E[39] with modifications. Sabouraud dextrose (SD) medium (pH 6.8) was used instead of RPMI-1640 for inoculum and growth of the S. cerevisiae strains and cultures were incubated at 30 °C. […] Stock solutions of each agent were prepared in DMSO and the final concentration of DMSO was 1% (v/v) in SD. […] The final concentration of all other compounds ranged from 0.03–16 μg mL^−1. Three biological repeats were performed.

[2] = tested on: S. cerevisiae Y525 overexpressing C. albicans MFS transporter MDR1a; experiment: MIC, recombinant S. cerevisiae strain Y525 CaMDR1a; type: cell-based; settings: SD medium pH 6.8, 30 °C; 80% inhibition of growth
Procedure: as §2

[3] = tested on: S. cerevisiae Y2301 overexpressed ScCYP51 Y140F; experiment: MIC, recombinant S. cerevisiae strain Y2301 Y140F; type: cell-based; settings: Saccharomyces cerevisiae, pH 6.8, read-out: MIC Y2301 Y140F
Procedure: as §1, §2

[4] = tested on: S. cerevisiae Y570 overexpressing C. albicans ABC transporter CDR1B; experiment: MIC, recombinant S. cerevisiae strain Y570 CaCDR1B; type: cell-based; settings: SD medium pH 6.8, 30 °C; 80% inhibition of growth
Procedure: as §1, §2

[5] = tested on: S. cerevisiae Y2760 overexpressed H. sapiens wild-type CYP51 (HsCYP51); experiment: MIC, recombinant S. cerevisiae strain Y2760 HsCYP51; type: cell-based; settings: Saccharomyces cerevisiae; SD medium pH 6.8, 30 °C; 80% inhibition of growth; read-out: MIC Y2760 HsCYP51
Procedure: as §1
The HsCYP51 ORF (NP_000777.1) was codon harmonized (ch) using DNA 2.0 for expression in S. cerevisiae and synthesized by ATUM (Newark, Ca, USA). The 3′ end of the ORF was extended to encode EQKI of the ScErg11 C-terminus, followed by a GGR linker and a 6xHis tag. Strain Y2514 was prepared by transforming host strain Y1857 with a transformation cassette including the above construct together with the ScPGK transcription terminator and URA3 selection marker located downstream, bordered by upstream and downstream parts of ScPDR5 gene identical to sequences in ScErg11 over-expressing strain Y941. Strain Y2514 constitutively overexpressed HsCYP51ch-6xHis and URA3 from the ScPDR5 locus.
Strain Y2757 (Y2514, PDR15::HsCPRch-6xHis-LoxP-HIS1-LoxP) was prepared by co-expressing the cognate reductase HsCRP in strain Y2514. Codon harmonisation and synthesis of human NADPH-cytochrome P450 reductase isoform 2 (HsCPRch, NP_001369584.1) ORF was performed by ATUM. The gene was 3′ extended with a sequence encoding GGR-6xHIS. A transformation cassette was prepared by recombinant PCR to include the HsCPRch ORF with 657 nucleotides the ScPDR5 promoter upstream, and the ScPGK terminator followed by the LoxP flanked ScHIS1 selection marker downstream. ScPDR15 specific arms bordering the construct enabled the cassette to be integrated between the nucleotide 441 of the 5′ UTR and nucleotide 1 of the 3′ UTR in PDR15.
Strain Y2758 (Y2757 ΔHIS1) was made using the following steps. Strain Y2757 was transformed with the pSH69 pGAL1-cre plasmid (Euroscarf, Germany) via selection on hygromycin (75 μg mL^−1) containing YPD plates. A single hygromycin positive colony was inoculated in 1% yeast extract, 2% peptone and 2% of galactose broth and incubated for 16 hours at 30 °C with shaking. The diluted culture was then plated on YPD agar and replica-plated on YPD + hygromycin and SD-HIS dropout agar plates. Deletion of the HIS selection marker downstream of HsCPRch-6xHis in the PDR15 locus was confirmed in double His and hygromycin negative isolates by PCR and DNA sequence analysis.
The endogenous ScERG11 ORF in strain Y2758 was removed by transforming with a LoxP- ScHIS1 containing cassette with arms complementing from +387 nucleotides in the 5′UTR and −60 nucleotides in the 3′UTR of the ScERG11 locus, resulting in strain Y2760 (ADΔΔ PDR5::HsCYP51ch-6×HIS-URA3; PDR15::HsCPRch6×HIS-LoxP, ΔERG11-LoxP-HIS1-LoxP).
as §2

[6] = tested on: S. cerevisiae Y2513 overexpressed ScCYP51 Y140H; experiment: MIC, recombinant S. cerevisiae strain Y2513 Y140H; type: cell-based; settings: Saccharomyces cerevisiae, pH 6.8, read-out: MIC Y2513 Y140H
Procedure: as §1, §2

[7] = tested on: S. cerevisiae Y2300 overexpressed wild-type ScCYP51; experiment: MIC, recombinant S. cerevisiae strain Y2300 ScCYP51; type: cell-based; settings: Saccharomyces cerevisiae; SD medium pH 6.8, 30 °C; 80% inhibition of growth; read-out: MIC Y2300 ScCYP51
Procedure: as §1, §2

native CaCYP51 = target: T1, native CaCYP51 (Candida albicans, UniProt P10613); experiment: CaCYP51 type II ligand binding affinity (Kd) from difference spectra saturation curves; settings: 2.5 μM native CaCYP51; mean ± SD of three titrations; read-out: K d
T1 construct: made in house; host or cells: E. coli
Procedure: Azole titration was performed in triplicate.
The ligand–CaCYP51 complex was determined by non-linear regression (Levenberg–Marquardt algorithm) using a rearrangement of the Morrison equation for tight ligand binding,[38] while weak ligand binding was calculated by the Michaelis–Menten equation. Curve fitting for novel azole saturation curves was performed using the computer program ProFit 6.1.12 (QuantumSoft, Zurich, Switzerland) for Mac OSX. Kd values were determined for each of the three replicate titrations per azole compound and then mean Kd values and standard deviations calculated.

[8] = tested on: C. albicans wild-type clinical isolate CA14; experiment: C. albicans susceptibility testing (CLSI broth microdilution MIC), strain CA14; type: cell-based, Candida albicans; settings: Candida albicans, RPMI 1640, 37 °C, read at 48 h
Excerpt: (§3) Each novel compound was screened against C. albicans wild-type clinical isolate CA14 and C. albicans laboratory strain SC5314 using the standardised CLSI M27-S4 broth dilution method.[28] […] This might be explained by the clog P data as the more lipophilic compounds should more readily penetrate the fungal membrane resulting in improved uptake or may relate to optimal fill of the small hydrophobic pocket leading to improved binding.
(§4) Antifungal MIC values were obtained according to the CLSI microdilution method for yeasts.[28]C. albicans strains CA14 and SC5314 were tested in triplicate. Cultures were diluted to 2.5 × 10^3 cells per mL in RPMI 1640 (Sigma), buffered with 0.165 M MOPS, pH 7.0. Antifungal compounds were dissolved in DMSO and added at a final concentration of 1% v/v DMSO. Plates were incubated at 37 °C and read at 48 h.

[9] = tested on: C. albicans laboratory strain SC5314; experiment: C. albicans susceptibility testing (CLSI broth microdilution MIC), strain SC5314; type: cell-based, Candida albicans; settings: Candida albicans, SC5314, 48 h, RPMI 1640, 37 °C, read at 48 h
Excerpt: as §3, §4

[10] = target: T2, C. albicans CYP51 (CaCYP51) (Candida albicans, UniProt P10613); experiment: CaCYP51 reconstitution assay (IC50); type: biochemical; settings: 1 μM CaCYP51, 60 μM lanosterol, 15 min at 37 °C
T2 construct: made in house; host or cells: E. coli
Procedure: Derivatives with a MIC <1 μg mL^−1 were chosen for IC50 testing.
C. albicans CYP51 was overexpressed in E. coli and purified and CaCYP51 reconstitutions assays performed.[10,37] The final reaction volume of 500 μL, contained; 1 μM C. albicans CYP51, 2 μM Homo sapiens cytochrome P450 reductase (CPR) (UniProtKB accession number P16435), 60 μM lanosterol, 50 μM dilaurylphosphatidylcholine, 4% w/v 2-hydroypropyl-cyclodextrin, 0.4 mg mL^−1 isocitrate dehydrogenase, 25 mM trisodium isocitrate, 50 mM NaCl, 5 mM MgCl2, and 40 mM MOPS (morpholinepropanesulfonic acid, pH 7.2). Antifungal compounds were added in 2.5 μL DMSO. The reaction was started by the addition of 4 mM NADPH-tetrasodium salt. Samples were shaken for 15 min at 37 °C and sterol metabolites extracted with ethyl acetate and derivatised with BSTFA.

T2 sequence (P10613 whole entry): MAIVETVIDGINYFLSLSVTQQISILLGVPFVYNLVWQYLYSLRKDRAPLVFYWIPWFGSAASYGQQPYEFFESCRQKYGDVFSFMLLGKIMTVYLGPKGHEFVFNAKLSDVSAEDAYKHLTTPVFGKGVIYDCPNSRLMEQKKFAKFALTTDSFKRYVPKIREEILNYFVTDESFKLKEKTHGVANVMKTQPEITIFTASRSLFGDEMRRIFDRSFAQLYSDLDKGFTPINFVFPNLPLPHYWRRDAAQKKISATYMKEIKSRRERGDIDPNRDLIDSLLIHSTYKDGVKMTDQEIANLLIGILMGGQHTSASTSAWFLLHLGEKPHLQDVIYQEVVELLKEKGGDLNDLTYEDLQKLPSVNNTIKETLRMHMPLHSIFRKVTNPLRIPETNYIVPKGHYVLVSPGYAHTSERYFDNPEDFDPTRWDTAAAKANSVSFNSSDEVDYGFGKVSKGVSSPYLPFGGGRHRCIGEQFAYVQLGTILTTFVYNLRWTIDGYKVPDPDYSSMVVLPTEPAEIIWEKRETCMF
T1 sequence (P10613 whole entry): as above

Row | Kd (native CaCYP51) [nM] | MIC [8] [µg/mL] | MIC [9] [µg/mL] | IC50 [10] [nM] | Compound | MIC [1] [µg/mL] | MIC [2] [µg/mL] | MIC [3] [µg/mL] | MIC [4] [µg/mL] | MIC [5] [µg/mL] | MIC [6] [µg/mL] | MIC [7] [µg/mL]
1 | – | – | – | – | CC[C@@H]([C@H](C)O)n1ncn(-c2ccc(N3CCN(c4ccc(OC[C@@H]5CO[C@@](Cn6cncn6)(c6ccc(F)cc6F)C5)cc4)CC3)cc2)c1=O [PCZ, posaconazole, reference compound] | < 0.03 | < 0.03 | 0.06 | 8 | 8 | < 0.03 | 0.06
2 | 94 ± 24 | 0.25 (≈ 0.43 µM) | 0.25 (≈ 0.43 µM) | 780 | O=C(NCC(O)(Cn1cncn1)c1ccc(Cl)cc1Cl)c1ccc(NS(=O)(=O)c2ccc(Cl)cc2)cc1 (stereo not drawn) [14b, 4-((4-Chlorophenyl)sulfonamido)-N-(2-(2,4-dichlorophenyl)-2-hydroxy-3-(1H-1,2,4-triazol-1-yl)propyl)benzamide] | – | – | – | – | – | – | –
3 | 635 ± 181 | 0.25 (≈ 0.628 µM) | 0.25 (≈ 0.628 µM) | 770 | O=C(NCC(O)(Cn1cncn1)c1ccc(Cl)cc1)c1csc(Cl)n1 (stereo not drawn) [7a, 2-Chloro-N-(2-(4-chlorophenyl)-2-hydroxy-3-(1H-1,2,4-triazol-1-yl)propyl)thiazole-4-carboxamide] | – | – | – | – | – | – | –
4 | – | 4 (≈ 7.39 µM) | 4 (≈ 7.39 µM) | – | O=C(NCC(O)(Cn1cncn1)c1ccc(Cl)cc1)c1ccc(NC(=S)Nc2ccc(Cl)cc2)cc1 (stereo not drawn) [11a, N-(2-(4-Chlorophenyl)-2-hydroxy-3-(1H-1,2,4-triazol-1-yl)propyl)-4-(3-(4-chlorophenyl)thioureido)benzamide] | – | – | – | – | – | – | –
5 | 137 ± 14 | 0.125 (≈ 0.223 µM) | 0.125 (≈ 0.223 µM) | 470 | O=C(Nc1ccc(Cl)cc1)Nc1ccc(C(=O)NCC(O)(Cn2cncn2)c2ccc(Cl)cc2Cl)cc1 (stereo not drawn) [12b, 4-(3-(4-Chlorophenyl)ureido)-N-(2-(2,4-dichlorophenyl)-2-hydroxy-3-(1H-1,2,4-triazol-1-yl)propyl)benzamide] | – | – | – | – | – | – | –
